Measurements published in ChEMBL document CHEMBL6083176, “Fluorescence theranostic PROTACs for real-time visualization of ERα degradation” (Eur J Med Chem, 2024).
The source made the active and inactive calls. The rule behind the calls is not given here. Peptide text beside a SMILES is read from it. * marks the point of attachment. Cbz = O=C(OCc1ccccc1)*

Legend:
[1] = test system: MCF7; assay: Antiproliferative activity against human MCF7 cells assessed as reduction in cell viability incubated for 48 hrs by MTT assay; type: functional, cell-based; conditions: MCF7, 48 h
[2] = biological target: T1, Estrogen receptor (Homo sapiens) (UniProt P03372); assay: Binding affinity to ERalpha (unknown origin) assessed as relative binding affinity incubated for 2 hrs in presence of coumestrol by fluorescence polarization based competitive binding assay relative to estradiol
T1 sequence (whole entry): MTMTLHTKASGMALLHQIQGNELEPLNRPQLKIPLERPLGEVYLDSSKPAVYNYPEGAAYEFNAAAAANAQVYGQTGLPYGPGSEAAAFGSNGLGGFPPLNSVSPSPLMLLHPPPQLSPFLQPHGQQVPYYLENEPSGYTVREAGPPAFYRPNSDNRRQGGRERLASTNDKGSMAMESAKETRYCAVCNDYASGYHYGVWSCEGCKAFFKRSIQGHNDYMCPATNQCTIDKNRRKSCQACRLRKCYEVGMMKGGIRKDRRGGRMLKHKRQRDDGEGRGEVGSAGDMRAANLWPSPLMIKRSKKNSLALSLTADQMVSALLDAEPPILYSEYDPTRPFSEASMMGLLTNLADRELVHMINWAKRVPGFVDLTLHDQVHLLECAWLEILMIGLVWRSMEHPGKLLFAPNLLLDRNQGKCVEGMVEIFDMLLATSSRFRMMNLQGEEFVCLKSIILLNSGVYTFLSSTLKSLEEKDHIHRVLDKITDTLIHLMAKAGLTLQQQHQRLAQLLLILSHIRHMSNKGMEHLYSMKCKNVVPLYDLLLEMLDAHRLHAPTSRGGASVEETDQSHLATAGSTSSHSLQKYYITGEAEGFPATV

[3] = biological target: Estrogen receptor beta (Homo sapiens) (UniProt Q92731); assay: Binding affinity to ERbeta (unknown origin) assessed as relative binding affinity incubated for 2 hrs in presence of coumestrol by fluorescence polarization based competitive binding assay relative to estradiol
[4] = Selectivity ratio of RBA for ERalpha (unknown origin) to RBA for ERbeta (unknown origin)
[5] = test system: DU-145; assay: Antiproliferative activity against human DU-145 cells assessed as reduction in cell viability incubated for 48 hrs by MTT assay; type: functional, cell-based; conditions: DU-145, 48 h
[6] = biological target: T2, von Hippel-Lindau disease tumor suppressor/Estrogen receptor (Homo sapiens, UniProt P03372+P40337); assay: PROTAC activity at VHL/ERalpha in human MCF7 cells assessed as induction of ERalpha degradation at 5 uM by Western blot analysis; type: cell-based
Target sequence in this assay (P40337 whole entry, looked up, one chain of several): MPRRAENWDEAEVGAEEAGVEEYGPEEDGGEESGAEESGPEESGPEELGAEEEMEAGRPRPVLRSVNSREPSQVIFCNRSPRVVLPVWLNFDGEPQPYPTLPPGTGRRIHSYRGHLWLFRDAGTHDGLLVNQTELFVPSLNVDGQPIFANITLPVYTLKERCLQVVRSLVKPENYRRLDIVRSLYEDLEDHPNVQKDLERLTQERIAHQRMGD

[7] = biological target: T2, von Hippel-Lindau disease tumor suppressor/Estrogen receptor; assay: PROTAC activity at VHL/ERalpha in human MCF7 cells assessed as induction of ERalpha degradation incubated for 24 hrs by Western blot analysis; type: cell-based
Target sequence in this assay (P40337 whole entry, one chain of several): as the sequence (P40337 whole entry, looked up, one chain of several) above

[8] = biological target: T2, von Hippel-Lindau disease tumor suppressor/Estrogen receptor; assay: PROTAC activity at VHL/ERalpha in human MCF7 cells assessed as induction of ERalpha degradation at 0.05 to 0.5 uM incubated for 24 hrs in presence of 4-OHT by Western blot analysis; type: cell-based; conditions: dose 0.05-0.5 µM
Target sequence in this assay (P40337 whole entry, looked up, one chain of several): as above

[9] = biological target: T2, von Hippel-Lindau disease tumor suppressor/Estrogen receptor; assay: PROTAC activity at VHL/ERalpha in human MCF7 cells assessed as induction of ERalpha degradation at 0.5 uM incubated for 24 hrs in presence of VHL ligand by Western blot analysis; type: cell-based
Target sequence in this assay (P40337 whole entry, looked up, one chain of several): as above

[10] = biological target: T2, von Hippel-Lindau disease tumor suppressor/Estrogen receptor; assay: PROTAC activity at VHL/ERalpha in human MCF7 cells assessed as induction of ERalpha degradation at 0.5 uM incubated for 24 hrs in presence of MG132 by Western blot analysis; type: cell-based
Target sequence in this assay (P40337 whole entry, looked up, one chain of several): as above

[11] = Chemical reactivity of compound to […] assessed as change in fluorescence response; type: physicochemical
[12] = Chemical reactivity of compound to KCl assessed as change in fluorescence response; type: physicochemical
[13] = Chemical reactivity of compound to MgCl2 assessed as change in fluorescence response; type: physicochemical
[14] = Chemical reactivity of compound to CaCl2 assessed as change in fluorescence response; type: physicochemical
[15] = Chemical reactivity of compound to NaNO2 assessed as change in fluorescence response; type: physicochemical
[16] = Chemical reactivity of compound to NaHCO3 assessed as change in fluorescence response; type: physicochemical
[17] = GSH reactivity of compound assessed as change in fluorescence response; type: physicochemical
[18] = Chemical reactivity of compound to lysine assessed as change in fluorescence response; type: physicochemical
[19] = Chemical reactivity of compound to glycine assessed as change in fluorescence response; type: physicochemical
[20] = Chemical reactivity of compound to methionine assessed as change in fluorescence response; type: physicochemical
[21] = Photostability of the compound in DMSO/PBS solution assessed as decrease in fluorescence intensity at 466 nm excitation with Hamamatsu LC8 lightning cure (300 W) light for 2 hrs by fluorescence based analysis relative to initial value; type: physicochemical; set-up: dose or concentration left out as unconfirmed; conditions: read-out: Activity
[22] = Drug uptake in ER positive human MCF7 cells assessed as increase in red fluorescence at 10 uM incubated for 30 mins in glucose-depleted DMEM medium by confocal laser scanning microscopic analysis; type: ADME, cell-based; conditions: mcf7, 0.5 h
[23] = Drug uptake in ER positive human MCF7 cells assessed as increase in red fluorescence at 10 uM incubated for 30 mins in glucose-depleted DMEM medium in presence of estradiol by confocal laser scanning microscopic analysis; type: ADME, cell-based; conditions: mcf7, 0.5 h
[24] = biological target: T2, von Hippel-Lindau disease tumor suppressor/Estrogen receptor; assay: PROTAC activity at VHL/ERalpha in human MCF7 cells assessed as induction of ERalpha degradation by measuring decrease in green fluorescence at 10 uM measured after 24 hrs by anti-ERalpha based immunofluorescence analysis; type: cell-based
Target sequence in this assay (P40337 whole entry, looked up, one chain of several): as above

[25] = Drug uptake in human MCF7 cells assessed as increase in red fluorescence at 10 uM measured after 24 hrs by confocal laser scanning microscopic analysis; type: ADME, cell-based; conditions: mcf7, 24 h
[26] = test system: MCF7; assay: Effect on ERalpha expression in human MCF7 cells at 5 uM incubated for 24 hrs by Western blot analysis; type: functional, cell-based

Estrogen receptor beta (Homo sapiens), sequence (Q92731 whole entry): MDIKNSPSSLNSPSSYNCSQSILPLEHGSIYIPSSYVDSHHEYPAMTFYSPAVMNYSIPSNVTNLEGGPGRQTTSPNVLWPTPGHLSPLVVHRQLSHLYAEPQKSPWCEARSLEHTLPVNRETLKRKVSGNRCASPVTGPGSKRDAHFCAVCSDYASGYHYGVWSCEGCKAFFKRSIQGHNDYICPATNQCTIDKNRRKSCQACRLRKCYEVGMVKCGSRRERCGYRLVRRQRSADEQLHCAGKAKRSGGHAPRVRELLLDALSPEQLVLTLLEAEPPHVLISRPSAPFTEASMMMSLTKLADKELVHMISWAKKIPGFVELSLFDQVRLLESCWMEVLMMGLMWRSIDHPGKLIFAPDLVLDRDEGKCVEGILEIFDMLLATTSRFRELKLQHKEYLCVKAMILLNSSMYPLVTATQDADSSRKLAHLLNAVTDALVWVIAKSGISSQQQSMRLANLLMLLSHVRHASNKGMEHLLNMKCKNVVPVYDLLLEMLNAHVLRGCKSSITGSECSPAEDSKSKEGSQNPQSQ

SMILES	IC50 [1]	RBA [2]	RBA [3]	Selectivity ratio [4]	IC50 [5]	Activity [6]	also measured
C[C@]12CC[C@@H]3c4ccc(O)cc4C[C@@H](CCCCCCCCC[S+]([O-])CCCC(F)(F)C(F)(F)F)[C@H]3[C@@H]1CC[C@@H]2O (stereo not given in full) [FULVESTRANT]	3 nM						
Cc1ncsc1-c1ccc([C@H](C)NC(=O)[C@@H]2C[C@@H](O)CN2C(=O)[C@@H](NC(=O)CCCCCCCCCOc2cc(O)ccc2/C=C/C2=CC(=C(C#N)C#N)c3cc(O)ccc3O2)C(C)(C)C)cc1	51 nM	7.99%	3.94%	2.03	> 100000 nM	Active	DC50 [7]: 120 nM; Activity [8]: inactive; Activity [9]: inactive; Activity [10]: Not active; Mg132 Partly Blocked The Degradation; Activity [11]: Not_active; Activity [12]: Not_active; Activity [13]: Not_active; Activity [14]: Not_active; Activity [15]: Not_active; Activity [16]: Not_active; Drug metabolism [17]: metabolite_notdetected; Activity [18]: Not_active; Activity [19]: Not_active; Activity [20]: Not_active; degraded at 2 h [21]: < 5%; Drug uptake [22]: Active; Drug uptake [23]: Not_active; Activity [24]: Active; Nearly Complete Disappearance Of Fluorescence Observed; Drug uptake [25]: Active
Cc1ncsc1-c1ccc([C@H](C)NC(=O)[C@@H]2C[C@@H](O)CN2C(=O)[C@@H](NC(=O)CCCCCOc2cc(O)ccc2/C=C/C2=CC(=C(C#N)C#N)c3cc(O)ccc3O2)C(C)(C)C)cc1	> 100000 nM	3.69%	2.48%	1.48	> 100000 nM	Active	
Cc1ncsc1-c1ccc([C@H](C)NC(=O)[C@@H]2C[C@@H](O)CN2C(=O)[C@@H](NC(=O)CCCCCCCOc2cc(O)ccc2/C=C/C2=CC(=C(C#N)C#N)c3cc(O)ccc3O2)C(C)(C)C)cc1	110 nM	2.48%	0.65%	3.79	> 100000 nM	Active	
Cc1ncsc1-c1ccc([C@H](C)NC(=O)[C@@H]2C[C@@H](O)CN2C(=O)[C@@H](NC(=O)CCCCCCCCCCCOc2cc(O)ccc2/C=C/C2=CC(=C(C#N)C#N)c3cc(O)ccc3O2)C(C)(C)C)cc1	33500 nM	2.11%	1.4%	1.51	> 100000 nM	Active	
CC(C)C[C@@H](C=O)NC(=O)[C@H](CC(C)C)NC(=O)[C@H](CC(C)C)NC(=O)OCc1ccccc1 (Cbz-Leu-Leu-Leu-aldehyde)							Activity [26]: inactive
